Results taken from patent publication US6077503A, “Skin whitener composition containing mercaptodextran” (Amway Corporation, priority 1997, dated 2000).

Tested on: tyrosinase from mushroom
Test: Inhibition of mushroom tyrosinase (tyrosine substrate, absorbance at 475 nm after 24 hours)
Format: biochemical
Procedure: A buffer solution A containing 50 mM sodium acetate was prepared to yield a 6.8 pH. A tryosine solution was prepared by adding 15 mg of tyrosine to 100 ml of buffer solution A. A tyrosinase solution was prepared by adding 11.5 mg tyrosinase from mushroom (Serva Art. 37618, 72 μ/mg) in 1.2 ml. of buffer solution A. A test tube was charged with 2.7 ml of buffer solution A and 0.4 ml. water to define a blank. Similarly, another test tube was charged with 2.7 ml. of the tyrosine solution, 0.3 ml of water, and 0.1 ml of the tyrosinase solution to define a reference. The samples were stored for 24 hours at a temperature between 23° C. and 25° C. The absorbency of the reference was measured at 475 nm with a spectrophotometer and the absorbancy was set to zero. […] A test tube was charged with 2.7 ml of the tyrosine solution, 0.1 ml. of the tyrosinase solution and 1% mercaptodextran having a molecular weight of about 10,000 from Pharmacia Biotech. The sample was stored for 24 hours at a temperature between 23° C. and 25° C. The absorbancy of was measured at 24 hours. The percent inhibition of the tyrosinase of was calculated as follows: [formula]

[1] = Example 1 / Table 1, whitener 1.0 wt %, 24 hours at 23-25° C., pH 6.8

SMILES | Percent inhibition (24 hours) [1] [%] | Percent inhibition (24 hours) (Example 2 / Table 2, whitening agent 1.0 wt %, 24 hours) [%]
O=c1oc2cc(O)ccc2s1 [Tioxolone] | 0.0 | 
O=c1cc(CO)occ1O [Kojic Acid] | 87.8 | 90.9
